# In doi:10.1101/2025.03.25.645215v1 (biorxiv, 2025):
# Molecular target: SERT (hSERT) (Homo sapiens, UniProt P31645)
# Assay: 3H-5HT uptake inhibition, HEK293, 384-well
# Type: cell-based
# Conditions: not given
# Sequence of SERT (hSERT) (P31645 whole entry): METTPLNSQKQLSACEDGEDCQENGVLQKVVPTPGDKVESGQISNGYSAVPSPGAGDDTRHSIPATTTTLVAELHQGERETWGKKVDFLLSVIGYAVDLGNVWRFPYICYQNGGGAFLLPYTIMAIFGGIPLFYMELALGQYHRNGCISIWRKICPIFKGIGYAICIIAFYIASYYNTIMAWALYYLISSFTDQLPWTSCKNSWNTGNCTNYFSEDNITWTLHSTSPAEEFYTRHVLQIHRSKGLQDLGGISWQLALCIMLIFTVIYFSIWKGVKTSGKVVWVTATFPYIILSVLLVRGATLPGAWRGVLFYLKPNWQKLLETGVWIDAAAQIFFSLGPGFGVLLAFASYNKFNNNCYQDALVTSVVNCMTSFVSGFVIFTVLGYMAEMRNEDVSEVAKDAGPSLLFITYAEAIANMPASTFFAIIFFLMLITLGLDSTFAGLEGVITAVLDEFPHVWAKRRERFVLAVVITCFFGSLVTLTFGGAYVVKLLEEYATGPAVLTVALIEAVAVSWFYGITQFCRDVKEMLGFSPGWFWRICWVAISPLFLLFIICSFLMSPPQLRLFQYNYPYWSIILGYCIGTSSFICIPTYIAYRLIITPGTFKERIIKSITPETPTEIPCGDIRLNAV
row,IC50,SMILES
1,> 80 µM,CC1(C)CC(=O)C2=C(C1)Nc1ccccc1N(C(=O)c1ccccc1)C2c1ccc(C(C)(C)C)cc1 (stereo not shown) [11n]
2,> 80 µM,COc1cc(C2C3=C(CC(C)(C)CC3=O)Nc3ccccc3N2C(=O)c2ccccc2)ccc1O (stereo not shown) [11v]
3,> 80 µM,COc1ccc(C2C3=C(CC(c4ccc(OC)c(OC)c4)CC3=O)Nc3ccccc3N2C(=O)c2ccccc2)cc1 (stereo not shown) [14f]

# Molecular target: T1, B^0AT2/SLC6A15 (eGFP-hSLC6A15) (Homo sapiens, UniProt Q9H2J7)
# T1 sequence (Q9H2J7 1-730): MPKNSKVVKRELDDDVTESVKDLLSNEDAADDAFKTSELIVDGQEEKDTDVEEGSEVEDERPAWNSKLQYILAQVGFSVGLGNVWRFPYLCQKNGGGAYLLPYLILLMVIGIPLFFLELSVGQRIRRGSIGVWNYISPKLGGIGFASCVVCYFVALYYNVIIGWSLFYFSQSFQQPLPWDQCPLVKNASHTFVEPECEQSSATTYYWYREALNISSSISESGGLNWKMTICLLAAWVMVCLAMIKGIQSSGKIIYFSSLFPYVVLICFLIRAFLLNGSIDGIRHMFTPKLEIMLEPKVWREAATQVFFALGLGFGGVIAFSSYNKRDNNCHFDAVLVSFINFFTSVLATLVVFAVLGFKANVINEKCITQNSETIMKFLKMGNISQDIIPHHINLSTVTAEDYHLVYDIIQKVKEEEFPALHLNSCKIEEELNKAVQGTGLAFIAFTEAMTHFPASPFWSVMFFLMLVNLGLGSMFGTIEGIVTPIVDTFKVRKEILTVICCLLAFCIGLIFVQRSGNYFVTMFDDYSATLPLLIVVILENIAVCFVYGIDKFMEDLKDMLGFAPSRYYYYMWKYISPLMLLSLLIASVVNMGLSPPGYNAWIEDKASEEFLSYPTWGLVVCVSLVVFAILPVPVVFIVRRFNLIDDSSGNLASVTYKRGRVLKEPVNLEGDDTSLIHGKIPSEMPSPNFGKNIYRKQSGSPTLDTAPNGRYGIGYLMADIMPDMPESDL
# Assay: cell-based
# Parameters: species or system HEK293 eGFP-hSLC6A15
# Conditions: not given
row,IC50,SMILES
1,1.4 ± 0.2 µM,COc1ccc(C2C3=C(CCCC3=O)Nc3ccccc3N2C(=O)c2ccccc2)cc1OC (stereo not shown) [10b]

# Molecular target: T1, B^0AT2/SLC6A15 (eGFP-hSLC6A15)
# Assay: cell-based
# Parameters: species or system HEK293 eGFP-hSLC6A15
# Conditions: not given
# Remark: another data set of the same source
row,IC50,SMILES
1,1.6 ± 0.3 µM,O=C1CCCC2=C1C(c1cccnc1)N(C(=O)c1ccccc1)c1ccccc1N2 (stereo not shown) [12a]
2,5.1 ± 2 µM,O=C1CCCC2=C1C(c1ccco1)N(C(=O)c1ccccc1)c1ccccc1N2 (stereo not shown) [12b]
3,1.9 ± 0.4 µM,CC1(C)CC(=O)C2=C(C1)Nc1ccccc1N(C(=O)c1ccccc1)C2c1cccnc1 (stereo not shown) [12c]
4,3.9 ± 0.8 µM,CC1(C)CC(=O)C2=C(C1)Nc1ccccc1N(C(=O)c1ccccc1)C2c1ccccn1 (stereo not shown) [12d]
5,1.3 ± 0.1 µM,CC1(C)CC(=O)C2=C(C1)Nc1ccccc1N(C(=O)c1ccccc1)C2c1ccco1 (stereo not shown) [12e]
6,2.6 ± 0.2 µM,Cc1ccc(C2C3=C(CC(C)(C)CC3=O)Nc3ccccc3N2C(=O)c2ccccc2)o1 (stereo not shown) [12f]
7,> 80 µM,Cn1cccc1C1C2=C(CC(C)(C)CC2=O)Nc2ccccc2N1C(=O)c1ccccc1 (stereo not shown) [12g]
8,> 30 µM,CC1(C)CC(=O)C2=C(C1)Nc1ccccc1N(C(=O)c1ccccc1)C2c1c[nH]c2ccccc12 (stereo not shown) [12h]

# Same assay, conditions: read-out: B^0AT2 IC50; inhibitor
row,IC50,SMILES
1,> 80 µM,CC1(C)CC(=O)C2=C(C1)Nc1ccccc1N(C(=O)c1ccccc1)C2c1ccc(-c2ccc(Br)cc2)o1 (stereo not shown) [12i]

# Molecular target: GAT1 (hGAT1) (Homo sapiens, UniProt P30531)
# Assay: 3H-GABA uptake inhibition, HEK293, 384-well
# Type: cell-based
# Conditions: not given
# Sequence of GAT1 (hGAT1) (P30531 whole entry): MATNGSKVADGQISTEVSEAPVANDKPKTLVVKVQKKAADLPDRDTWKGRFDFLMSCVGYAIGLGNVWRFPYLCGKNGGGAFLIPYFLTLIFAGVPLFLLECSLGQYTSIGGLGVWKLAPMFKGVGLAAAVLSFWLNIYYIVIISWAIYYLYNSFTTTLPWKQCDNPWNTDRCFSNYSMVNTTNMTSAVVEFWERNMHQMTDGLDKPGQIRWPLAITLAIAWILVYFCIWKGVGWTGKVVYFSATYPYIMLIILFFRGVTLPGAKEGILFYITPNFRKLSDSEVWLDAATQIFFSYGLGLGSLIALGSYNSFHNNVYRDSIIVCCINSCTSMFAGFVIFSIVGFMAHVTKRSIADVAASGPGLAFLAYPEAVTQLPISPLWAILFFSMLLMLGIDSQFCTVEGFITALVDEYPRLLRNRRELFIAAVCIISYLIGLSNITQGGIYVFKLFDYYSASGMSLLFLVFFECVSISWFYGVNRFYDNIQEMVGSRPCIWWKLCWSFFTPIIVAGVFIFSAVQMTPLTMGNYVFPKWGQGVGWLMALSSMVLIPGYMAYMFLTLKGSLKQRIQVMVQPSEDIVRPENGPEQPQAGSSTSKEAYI
row,IC50,SMILES
1,> 80 µM,CC1(C)CC(=O)C2=C(C1)Nc1ccccc1N(C(=O)c1ccccc1)C2c1ccc(C(C)(C)C)cc1 (stereo not shown) [11n]
2,> 80 µM,COc1cc(C2C3=C(CC(C)(C)CC3=O)Nc3ccccc3N2C(=O)c2ccccc2)ccc1O (stereo not shown) [11v]
3,> 80 µM,COc1ccc(C2C3=C(CC(c4ccc(OC)c(OC)c4)CC3=O)Nc3ccccc3N2C(=O)c2ccccc2)cc1 (stereo not shown) [14f]

# Molecular target: T1, B^0AT2/SLC6A15 (eGFP-hSLC6A15)
# Assay: cell-based
# Parameters: species or system HEK293 eGFP-hSLC6A15
# Conditions: not given
# Remark: another data set of the same source
row,IC50,SMILES
1,1.2 ± 0.1 µM,CC1(C)CC(=O)C2=C(C1)Nc1ccccc1N(C(=O)c1ccccc1)C2c1ccccc1 (stereo not shown) [11a]
2,> 80 µM,CCOc1cc(C2C3=C(CC(C)(C)CC3=O)Nc3ccccc3N2C(=O)c2ccccc2)ccc1OCc1ccc(Cl)cc1 (stereo not shown) [11aa]
3,11.3 ± 14.9 µM,COc1cc(C2C3=C(CC(C)(C)CC3=O)Nc3ccccc3N2C(=O)c2ccccc2)cc(OC)c1OC (stereo not shown) [11ab]
4,2 ± 0.2 µM,CC1(C)CC(=O)C2=C(C1)Nc1ccccc1N(C(=O)c1ccccc1)C2c1ccc(F)cc1 (stereo not shown) [11b]
5,0.9 ± 0.1 µM,CC1(C)CC(=O)C2=C(C1)Nc1ccccc1N(C(=O)c1ccccc1)C2c1ccc(Cl)cc1 (stereo not shown) [11c]
6,0.74 ± 0.07 µM,CC1(C)CC(=O)C2=C(C1)Nc1ccccc1N(C(=O)c1ccccc1)C2c1ccc(Br)cc1 (stereo not shown) [11d]
7,0.73 ± 0.04 µM,CC1(C)CC(=O)C2=C(C1)Nc1ccccc1N(C(=O)c1ccccc1)C2c1ccc(C#N)cc1 (stereo not shown) [11e]
8,0.4 ± 0.03 µM,COc1ccc(C2C3=C(CC(C)(C)CC3=O)Nc3ccccc3N2C(=O)c2ccccc2)cc1 (stereo not shown) [11f]
9,0.5 ± 0.05 µM,CCOc1ccc(C2C3=C(CC(C)(C)CC3=O)Nc3ccccc3N2C(=O)c2ccccc2)cc1 (stereo not shown) [11g]
10,1.1 ± 0.1 µM,CC(C)Oc1ccc(C2C3=C(CC(C)(C)CC3=O)Nc3ccccc3N2C(=O)c2ccccc2)cc1 (stereo not shown) [11h]
11,0.58 ± 0.03 µM,CCCCOc1ccc(C2C3=C(CC(C)(C)CC3=O)Nc3ccccc3N2C(=O)c2ccccc2)cc1 (stereo not shown) [11i]
12,1.2 ± 0.1 µM,CCCCCOc1ccc(C2C3=C(CC(C)(C)CC3=O)Nc3ccccc3N2C(=O)c2ccccc2)cc1 (stereo not shown) [11j]
13,2 ± 0.2 µM,CC1(C)CC(=O)C2=C(C1)Nc1ccccc1N(C(=O)c1ccccc1)C2c1ccc(C(F)(F)F)cc1 (stereo not shown) [11k]
14,10.6 ± 1.7 µM,CN(C)c1ccc(C2C3=C(CC(C)(C)CC3=O)Nc3ccccc3N2C(=O)c2ccccc2)cc1 (stereo not shown) [11l]
15,1.8 ± 0.3 µM,COC(=O)c1ccc(C2C3=C(CC(C)(C)CC3=O)Nc3ccccc3N2C(=O)c2ccccc2)cc1 (stereo not shown) [11m]
16,> 80 µM,CC1(C)CC(=O)C2=C(C1)Nc1ccccc1N(C(=O)c1ccccc1)C2c1ccc(C(C)(C)C)cc1 (stereo not shown) [11n]
17,22.9 ± 14.7 µM,CC1(C)CC(=O)C2=C(C1)Nc1ccccc1N(C(=O)c1ccccc1)C2c1cccc(F)c1 (stereo not shown) [11o]
18,3.2 ± 0.5 µM,COc1cccc(C2C3=C(CC(C)(C)CC3=O)Nc3ccccc3N2C(=O)c2ccccc2)c1 (stereo not shown) [11p]
19,0.72 ± 0.07 µM,CCCOc1cccc(C2C3=C(CC(C)(C)CC3=O)Nc3ccccc3N2C(=O)c2ccccc2)c1 (stereo not shown) [11q]
20,0.24 ± 0.02 µM,COc1cc(C2C3=C(CC(C)(C)CC3=O)Nc3ccccc3N2C(=O)c2ccccc2)ccc1O (stereo not shown) [11v]

# Molecular target: T1, B^0AT2/SLC6A15 (eGFP-hSLC6A15)
# Assay: cell-based
# Parameters: species or system HEK293 eGFP-hSLC6A15
# Conditions: not given
# Remark: another data set of the same source
row,IC50,SMILES
1,> 80 µM,COc1ccc(C2C3=C(CC(c4ccc(OC)c(OC)c4)CC3=O)Nc3ccccc3N2C(=O)c2ccccc2)cc1 (stereo not shown) [14f]

# Test system: NTT4/SLC6A17 (NTT4-B^0AT2 chimera)
# Assay: 3H-proline uptake inhibition, HEK293, 384-well
# Type: cell-based
# Conditions: blanket statement for all 1,5-benzodiazepine analogs
row,IC50,SMILES
1,> 80 µM,CC1(C)CC(=O)C2=C(C1)Nc1ccccc1N(C(=O)c1ccccc1)C2c1ccc(C(C)(C)C)cc1 (stereo not shown) [11n]
2,> 80 µM,COc1cc(C2C3=C(CC(C)(C)CC3=O)Nc3ccccc3N2C(=O)c2ccccc2)ccc1O (stereo not shown) [11v]
3,> 80 µM,COc1ccc(C2C3=C(CC(c4ccc(OC)c(OC)c4)CC3=O)Nc3ccccc3N2C(=O)c2ccccc2)cc1 (stereo not shown) [14f]
